Test system: tibialis anterior (TA) muscle
Assay: Cardiotoxin muscle injury, TA histology (PAX7, myofiber cross-sectional area)
Format: in vivo, mouse
Conditions: for effect on endogenous MuSCs in the absence of injury: no tissue damage; for increase in endogenous PAX7-expressing MuSCs / distribution of myofiber cross-sectional area: young mice; for increase in endogenous PAX7-expressing MuSCs: bolus three days after injury, fourteen days post injury; for distribution of myofiber cross-sectional area: day 14 post-cardiotoxin injury
Protocol: Muscle injury: We used an injury model entailing intramuscular injection of 10 μl of notexin (10 μg ml^−1; Latoxan) or cardiotoxin (10 μM; Latoxan) into the TA muscle. For cryoinjury, an incision was made in the skin overlying the TA muscle and a copper probe, chilled in liquid nitrogen, was applied to the TA muscle for three 10 s intervals, allowing the muscle to thaw between each application of the cryoprobe. When indicated, 48 hr after injury either 16,16-Dimethyl Prostaglandin E2 (dmPGE2) (13 nmol, Tocris, catalog #4027) or vehicle control (PBS) was injected into the TA muscle. The contralateral TA was used as an internal control. We collected tissues 14 days post-injury for analysis.
Tissue histology: We collected and prepared recipient TA muscle tissues for histology as previously described^5,6. We incubated transverse sections with anti-LAMININ (Millipore, clone A5, catalog #05-206, 1:200), and anti-PAX7 (Santa Cruz Biotechnology, catalog #sc-81648, 1:50) primary antibodies and then with AlexaFluor secondary Antibodies (Jackson ImmunoResearch Laboratories, 1:200). We counterstained nuclei with DAPI (Invitrogen). We acquired images with an AxioPlan2 epifluorescent microscope (Carl Zeiss Microimaging) with Plan NeoFluar 10×/0.30 NA or 20×/0.75 NA objectives (Carl Zeiss) and an ORCA-ER digital camera (Hamamatsu Photonics) controlled by the SlideBook (3i) software. The images were cropped using Adobe Photoshop with consistent contrast adjustments across all images from the same experiment. The image composites were generated using Adobe Illustrator. We analyzed the number of PAX7 positive cells using the MetaMorph Image Analysis software (Molecular Devices), and the fiber area using the Baxter Algorithms for Myofiber Analysis that identified the fibers and segmented the fibers in the image to analyze the area of each fiber. For PAX7 quantification we examined serial sections spanning a depth of at least 2 mm of the TA. For fiber area at least 10 fields of LAMININ-stained myofiber cross-sections encompassing over 400 myofibers were captured for each mouse as above. Data analyses were blinded. The researchers performing the imaging acquisition and scoring were unaware of treatment condition given to sample groups analyzed.
We used an injury model entailing intramuscular injection of 10 μl of notexin (10 μg ml^−1; Latoxan, catalog #L8104) or cardiotoxin (10 μM; Latoxan, catalog #L8102) into the Tibialis anterior (TA) muscle. For cryoinjury, an incision was made in the skin overlying the TA muscle and a copper probe, chilled in liquid nitrogen, was applied to the TA muscle for three 10 s intervals, allowing the muscle to thaw between each application of the cryoprobe. When indicated, 48 hr after injury either 16,16-Dimethyl Prostaglandin E2 (dmPGE2) (13 nmol, Tocris, catalog #4027), Indomethacin (35 μg, Sigma, catalog #17378) or vehicle control (PBS) was injected into the TA muscle. The contralateral TA was used as an internal control, except for the force measurement experiments where each mouse had both legs injured with the same condition and independent mice were used for each condition.
We collected and prepared recipient TA muscle tissues for histology as previously described (26, 27). For mouse injury assays we incubated transverse sections with Rabbit polyclonal anti-PGE2 (abcam, Catalog #ab2318, 1:100) Rat polyclonal anti-Laminin (Clone A5) (EMD Millipore, Catalog #05-206, 1:200), Mouse monoclonal anti-Pax7 (Santa Cruz, Catalog #sc-81648, 1:50), AlexaFluor 647-conjugated wheat germ agglutinin (WGA) antibody (W32466, Thermo Fisher Scientific), Rabbit polyclonal anti-GFP (A11122, Thermo Fisher Scientific, 1:500) and Mouse monoclonal anti-Embryonic Myosin Heavy Chain (DSHB, Catalog #F1.652, 1:10) primary antibodies and then with AlexaFluor secondary Antibodies (Jackson ImmunoResearch Laboratories, 1:500). We counterstained nuclei with DAPI (Invitrogen). […]

Row | Compound | muscle mass of treated TA (day 14 post-injury) | effect on endogenous MuSCs in the absence of injury | increase in endogenous PAX7-expressing MuSCs | distribution of myofiber cross-sectional area | myofiber sizes (aged mice, fourteen days post-injury) | increase in the number of endogenous MuSCs (aged mice, single dmPGE2 injection, fourteen days post-injury)
1 | CCCCC[C@H](O)/C=C/[C@H]1[C@H](O)CC(=O)[C@@H]1C/C=C\CCCC(=O)O [PGE2, prostaglandin E2] | did not increase | no difference from vehicle-injected controls | 65±7% | striking shift in the distribution of myofibers from smaller toward larger sizes |  | 
2 | CCCCC(C)(C)[C@H](O)/C=C/[C@H]1[C@H](O)CC(=O)[C@@H]1C/C=C\CCCC(=O)O [dmPGE2, 16,16-dimethyl prostaglandin E2] |  | no effect | 60±15% | shifted toward larger sizes | concomitant increase in myofiber sizes | 24±2%

Source: patent US11738031B2, “Compositions and methods for preventing or treating muscle conditions” (The Board of Trustees of the Leland Stanford Junior …, priority 2017, dated 2023)
